The target of one test is T1, uPAR (uPA binding site) (Homo sapiens, UniProt Q03405).
T1 construct: purchased R&D systems
The test can be described thus: Competitive ELISA uPAR binding assay (immobilized urokinase). The conditions noted are these: at the uPA binding site. As to the method: The affinity of ARM-U2 derivatives differing in both the length of the DNP-linker substituted at position 2 of ring C and the display of negative charge density (FIG. 8, Table 1) for uPAR were assayed using a competitive ELISA binding assay. The assay involves the immobilization of urokinase, a natural high affinity ligand for uPAR followed by the addition of a fixed concentration of recombinant uPAR protein and increasing concentrations of ARM-U2 which competes with urokinase for binding to the uPA binding site of uPAR. Following several washing steps, the amount of uPAR bound is quantified by a biotinylated anti-uPAR antibody and avidin-HRP and can be fit to a competitive binding model allowing for the extraction of the uPAR/ARM-U2 Kd.
All ARM-U2 derivatives were assessed for their ability to bind selectively to recombinant uPAR in vitro using a competitive ELISA binding assay. DMSO stock solutions of each ARM-U2 derivative stored at −20° C. were titrated into wells pre-coated with human urokinase (isolated from human urine, ProSpec 1 mg/ml deI water 18.5 μM) in the presence of uPAR. Selective binding to uPAR by ARM-U2 at the uPA binding site competes with uPAR-uPA binding which is required for a positive UV 450 nm absorbance signal. Increasing concentrations of ARM-U2 displace increasing amounts of uPAR from uPA which is detected by anti-uPAR/biotin labeled antibodies followed by avidin-HRP. The sigmoidal binding isotherm of absorbance at 450 nm vs log ARM-U2 concentration can then by fit by non-linear regression analysis to obtain the IC50 for ARM-U2/uPAR binding (Equation S2) which can then be translated into a KI for ARM-U2/uPAR binding using a competitive binding model adapted from the Cheng-Prusoff equation relating KI to IC50 (Equation S3). The ELISA experiments were performed as followed: To Corning high binding 96 well flat bottom plates was added 100 μl/well of 100 nM urokinase in sterile PBS. The plates were sealed and left to incubate at 4° C. overnight. The plates were then washed 1× with 200 μl wash buffer (PBS+0.05% Tween-20) and 1× with 400 μl wash buffer. The plates were blotted on paper towel and blocked for 1 h shaking at room temp with 300 μl of a solution of thermo superblock in PBS per well. Molecule dilutions into solutions of a fixed concentration (10 nM) of uPAR were prepared in 0.025% triton-X/PBS on a separate low binding plate during the blocking hour. The plates were again washed followed by the addition of 100 μl of the ARM-U2/uPAR solution with 0.1% final DMSO concentration. The solutions were mixed by multichannel pipette, sealed, and incubated for 2 h with shaking at room temperature. The plates were then washed 1× with 200 μl wash buffer (PBS+0.05% Tween-20) and 2× with 400 μl wash buffer. The plates were blotted on a paper towel followed by the addition of 100 μl/well of a solution of biotinylated anti-uPAR antibody in 1% BSA/PBS. (R&D Systems, 3.3 μl taken from 50 μg/250 μl-1000× stock) and incubation with shaking for 1 h at room temp. The plates were washed 1× with 200 μl wash buffer and 2× with 400 μl wash buffer and blotted on a paper towel. 100 μl of avidin-HRP (stock −500× from e-bioscience) were added per well, incubated 20 min with shaking at room temp followed by washing 1× with 200 μl wash buffer and 3× with 400 μl wash buffer. The plates were blotted dry with paper towel and 100 μl of TMB substrate was added to each well. The emergence of blue color was monitored and the reaction quenched with the addition of 50 μl of 2M sulfuric acid to each well followed by measuring the absorbance at 450 nm using a fluorescence plate reader. […]

In another test the target is T2, recombinant uPAR (Homo sapiens, UniProt Q03405).
T2 construct: purchased R&D systems
Put plainly: Fluorescence quenching titration of ARM-U2 derivatives with uPAR. It is filed as binding. The conditions noted are these: fluorescence titration of 100 nM derivative with increasing uPAR; read-out: Kd, solution equilibrium dissociation constant with uPAR. As to the method: Selected ARM-U2 derivatives were assayed for their ability to bind recombinant uPAR using a fluorescence quenching assay. […] Increasing concentrations of recombinant uPAR were mixed with each compound containing aliquot and the fluorescence of the solution measured following 1 h equilibration times. […] To confirm that the observation of uPAR dependent fluorescence quenching was indeed due to specific binding to uPAR and to validate ARM-U2 binding to uPAR specifically via the uPA binding site, a direct binding ELISA assay was developed. In this assay, clear 96-well high-binding plates from CoStar, were loaded with 100 μl/well of 50 nM recombinant uPAR 807-UK-100-CF from R&D systems prepared from a 100 μg/ml (approx. 2.1 μM) stock of uPAR in PBS and left overnight at room temperature to equilibrate. Following equilibration, the plate was washed with wash buffer 1× (400 μl/well of 0.05% Tween/PBS), blotted dry and blocked for 1 hr with 300 ul/well of 2% BSA/PBS. Following blocking, the plate was washed with 400 ul of the wash buffer and blotted dry. […] The absorbance at 450 nm was measured using an in-house Perkin-Elmer fluorescence plate reader.
All ARM-U2 derivatives were assessed for their ability to bind selectively to recombinant uPAR in vitro using a competitive ELISA binding assay. […] Selective binding to uPAR by ARM-U2 at the uPA binding site competes with uPAR-uPA binding which is required for a positive UV 450 nm absorbance signal. Increasing concentrations of ARM-U2 displace increasing amounts of uPAR from uPA which is detected by anti-uPAR/biotin labeled antibodies followed by avidin-HRP. The sigmoidal binding isotherm of absorbance at 450 nm vs log ARM-U2 concentration can then by fit by non-linear regression analysis to obtain the IC50 for ARM-U2/uPAR binding (Equation S2) which can then be translated into a KI for ARM-U2/uPAR binding using a competitive binding model adapted from the Cheng-Prusoff equation relating KI to IC50 (Equation S3). […]

For the next test, the target named is T3, immobilized uPAR (Homo sapiens, UniProt Q03405).
T3 construct: purchased R&D systems 807-UK-100-CF
The test can be described thus: Direct ELISA binding assay on immobilized uPAR. As to the method:
Selected ARM-U2 derivatives were assayed for their ability to bind recombinant uPAR using a fluorescence quenching assay. The compounds stored at −20° C. as DMSO stocks were diluted into PBS aliquots at a fixed 50 nM concentration. Increasing concentrations of recombinant uPAR were mixed with each compound containing aliquot and the fluorescence of the solution measured following 1 h equilibration times. […] To confirm that the observation of uPAR dependent fluorescence quenching was indeed due to specific binding to uPAR and to validate ARM-U2 binding to uPAR specifically via the uPA binding site, a direct binding ELISA assay was developed. In this assay, clear 96-well high-binding plates from CoStar, were loaded with 100 μl/well of 50 nM recombinant uPAR 807-UK-100-CF from R&D systems prepared from a 100 μg/ml (approx. 2.1 μM) stock of uPAR in PBS and left overnight at room temperature to equilibrate. Following equilibration, the plate was washed with wash buffer 1× (400 μl/well of 0.05% Tween/PBS), blotted dry and blocked for 1 hr with 300 ul/well of 2% BSA/PBS. Following blocking, the plate was washed with 400 ul of the wash buffer and blotted dry. […] The absorbance at 450 nm was measured using an in-house Perkin-Elmer fluorescence plate reader.

The next test relates to anti-DNP antibodies. The test can be described thus: Affinity for anti-DNP antibodies. It is filed as binding.

T2 sequence (Q03405 23-305): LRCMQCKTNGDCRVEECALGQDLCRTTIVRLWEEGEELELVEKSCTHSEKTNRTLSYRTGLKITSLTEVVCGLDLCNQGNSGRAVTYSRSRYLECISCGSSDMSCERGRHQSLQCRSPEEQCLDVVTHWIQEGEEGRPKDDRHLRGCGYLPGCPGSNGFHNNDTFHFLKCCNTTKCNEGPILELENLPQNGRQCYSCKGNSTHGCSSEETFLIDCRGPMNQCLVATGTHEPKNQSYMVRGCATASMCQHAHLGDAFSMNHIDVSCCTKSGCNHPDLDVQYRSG
T1 sequence (Q03405 23-305): as above
T3 sequence (Q03405 23-305): as above

For orientation: Kd means the equilibrium constant for the complex coming apart. `O=C(O)c1cccc(Nc2cc(N3CCC[C@H](C(=O)NCCCOCCOCCOCCCNc4ccc([N+](=O)[O-])cc4[N+](=O)[O-])C3)c3noc4c3c2C(=O)c2ccccc2-4)c1` [1-ABT-1]: the “uPAR binding affinity (order of magnitude)” value on uPAR (uPA binding site) is “triple digit nanomolar binding affinity”. The Kd on recombinant uPAR worked out at 275 nM.
With `O=C1c2ccccc2-c2onc3c(N4CCC[C@H](C(=O)NCCOCCOCCOCCOCCOCCOCCOCCNc5ccc([N+](=O)[O-])cc5[N+](=O)[O-])C4)cc(Nc4ccc(S(=O)(=O)O)cc4S(=O)(=O)O)c1c23` [6-ABT-2], the Kd at recombinant uPAR was determined as 66 nM. Also, the “binding to immobilized uPAR vs parent derivative” value on immobilized uPAR is “much higher affinity than parent derivative 1-ABT-1”.
For the compound `O=C(CCCC(=O)NCCOCCOCCOCCOCCOCCOCCOCCNc1ccc([N+](=O)[O-])cc1[N+](=O)[O-])NCCOCCOCCOCCOCCOCCOCCOCCNC(=O)[C@H]1CCCN(c2cc(Nc3ccc(S(=O)(=O)O)cc3S(=O)(=O)O)c3c4c(onc24)-c2ccccc2C3=O)C1` [6-ABT-3], the Kd on recombinant uPAR was determined as 18 nM.
On to `O=C1c2ccccc2-c2onc3c(N4CCC[C@@H](C(=O)NCCCOCCOCCOCCCNc5ncccn5)C4)cc(Nc4ccc(S(=O)(=O)O)cc4S(=O)(=O)O)c1c23` [6-ABT-4], for which, in the test on anti-DNP antibodies, the “affinity for anti-DNP antibodies” value was “no affinity for anti-DNP antibodies”.

For the origin of these results see patent US10633374B2, “Small molecule based antibody-recruiting compounds for cancer treatment” (YALE UNIVERSITY, priority 2015, dated 2020).
